From patent US7915402B2, “Antioxidant inflammation modulators: oleanolic acid derivatives with saturation in the C-ring” (Reata Pharmaceuticals, Inc., priority 2008, dated 2011)

Key:
mice = assay: 9-day toxicity study in mice; type: in vivo; details: sesame oil, p.o. daily for 9 days
Protocol: In a second experiment, six additional compound differing only in the saturation or non-saturation of the C ring were tested for toxicity in mice by daily oral administration for 9 days, using sesame oil as the vehicle.

[1] = system: IFNγ-induced NO production in RAW264.7 macrophages; assay: Suppression of IFNγ-induced NO production (Griess reagent); type: cell-based, mouse; details: RAW264.7, 20 ng/ml IFNγ 24 h, 2 h pre-treatment
Protocol: (§1) FIGS. 1-8 and 32-34. Inhibition of NO Production. RAW264.7 macrophages were pre-treated with DMSO or drugs at various concentrations (nM) for 2 hours, then treated with 20 ng/ml IFNγ for 24 hours. NO concentration in media was determined using a Griess reagent system; cell viability was determined using WST-1 reagent.
(§2) Nitric Oxide production and cell viability. RAW264.7 macrophages were pre-treated with DMSO or drugs for 2 hours, then treated with recombinant mouse IFNγ (Sigma) for 24 hours. NO concentration in media was determined using the Griess reagent system (Promega). Cell viability was determined using WST-1 reagent (Roche).

RAW264.7 macrophages = assay: Cell viability, WST-1 reagent; type: cell-based, mouse; details: RAW264.7 (20 ng/ml IFNγ)
Protocol: as §1, §2

Row | IC50 [1] [nM] | IC50 ([1]; Mus musculus) [nM] | Structure (SMILES) | Mortality (mice; 3 mg/kg) | Mortality (mice; 10 mg/kg) | Mortality (mice; 30 mg/kg) | IC50 (RAW264.7 macrophages) [nM] | IC50 (RAW264.7 macrophages; Mus musculus) [nM]
1 |  |  | CONC(=O)[C@]12CCC(C)(C)C[C@H]1[C@H]1C(=O)C=C3[C@@]4(C)C=C(C#N)C(=O)C(C)(C)[C@@H]4CC[C@@]3(C)[C@]1(C)CC2 [Compound 63166, reference compound] | 0/5 | 0/5 | 0/5 |  | 
2 | > 200 |  | COC(=O)[C@]12CCC(C)(C)C[C@H]1[C@H]1C(=O)C[C@@H]3[C@@]4(C)Cc5cnoc5C(C)(C)[C@@H]4CC[C@@]3(C)[C@]1(C)CC2 [Compound 63195] |  |  |  | > 200 | 
3 | > 200 |  | CC1(C)CC[C@]2(C(=O)NCC(F)(F)F)CC[C@]3(C)[C@H](C(=O)C[C@@H]4[C@@]5(C)Cc6cnoc6C(C)(C)[C@@H]5CC[C@]43C)[C@@H]2C1 [Compound 63223] |  |  |  | > 200 | 
4 |  | > 200 | CC1(C)CC[C@]2(C(=O)NCC(F)(F)F)CC[C@]3(C)[C@H](C(=O)C[C@@H]4[C@@]5(C)CC(C#N)C(=O)C(C)(C)[C@@H]5CC[C@]43C)[C@@H]2C1 (stereo partly drawn) [Compound 63227, (4aS,6aR,6bR,8aR,12aR,12bR,14aR,14bS)-11-cyano-2,2,6a,6b,9,9,12a-heptamethyl-10,14-dioxo-N-(2,2,2-trifluoroethyl)docosahydropicene-4a-carboxamide] |  |  |  |  | > 200
5 |  | > 200 | CC1(C)CC[C@]2(c3nn[nH]n3)CC[C@]3(C)[C@H](C(=O)C[C@@H]4[C@@]5(C)C=C(C#N)C(=O)C(C)(C)[C@@H]5CC[C@]43C)[C@@H]2C1 [Compound 63229, (4aR,6aR,6bR,8aS,12aS,12bR,14aR,14bR)-4,4,6a,6b,11,11,14b-heptamethyl-3,13-dioxo-8a-(2H-tetrazol-5-yl)-3,4,4a,5,6,6a,6b,7,8,8a,9,10,11,12,12a,12b,13,14,14a,14b-icosahydropicene-2-carbonitrile] |  |  |  |  | > 200
6 |  | ~50 | Cn1nnc([C@]23CCC(C)(C)C[C@H]2[C@H]2C(=O)C[C@@H]4[C@@]5(C)C=C(C#N)C(=O)C(C)(C)[C@@H]5CC[C@@]4(C)[C@]2(C)CC3)n1 [Compound 63230, (4aR,6aR,6bR,8aS,12aS,12bR,14aR,14bR)-4,4,6a,6b,11,11,14b-heptamethyl-8a-(2-methyl-2H-tetrazol-5-yl)-3,13-dioxo-3,4,4a,5,6,6a,6b,7,8,8a,9,10,11,12,12a,12b,13,14,14a,14b-icosahydropicene-2-carbonitrile] |  |  |  |  | > 200
7 |  | > 200 | COC(=O)[C@]12CCC(C)(C)C[C@H]1[C@H]1C(=O)CC3[C@@]4(C)CC(C#N)=C(O)C(C)(C)[C@@H]4CC[C@@]3(C)[C@]1(C)CC2 (stereo partly drawn) [Compound 63250, (4aS,6aR,6bR,8aR,12aR,14aR,14bS)-methyl 11-cyano-10-hydroxy-2,2,6a,6b,9,9,12a-heptamethyl-14-oxo-1,2,3,4,4a,5,6,6a,6b,7,8,8a,9,12,12a,12b,13,14,14a,14b-icosahydropicene-4a-carboxylate] |  |  |  |  | > 200
8 | > 200 |  | CC1(C)CC[C@]2(C(=O)NCC(F)(F)F)CC[C@]3(C)[C@H]([C@H](O)C[C@@H]4[C@@]5(C)C=C(C#N)C(=O)C(C)(C)[C@@H]5CC[C@]43C)[C@@H]2C1 [Compound 63268] |  |  |  | > 200 | 
9 |  | ~70 | Cc1nnc([C@]23CCC(C)(C)C[C@H]2[C@H]2C(=O)C[C@@H]4[C@@]5(C)C=C(C#N)C(=O)C(C)(C)[C@@H]5CC[C@@]4(C)[C@]2(C)CC3)s1 [Compound 63274, (4aR,6aR,6bR,8aS,12aS,12bR,14aR,14bR)-4,4,6a,6b,11,11,14b-heptamethyl-8a-(5-methyl-1,3,4-thiadiazol-2-yl)-3,13-dioxo-3,4,4a,5,6,6a,6b,7,8,8a,9,10,11,12,12a,12b,13,14,14a,14b-icosahydropicene-2-carbonitrile] |  |  |  |  | > 200
10 |  | > 200 | COC(=O)[C@]12CCC(C)(C)C[C@H]1C1OC(O)C[C@@H]3[C@@]4(C)C=C(C#N)C(=O)C(C)(C)[C@@H]4CC[C@@]3(C)[C@]1(C)CC2 (stereo partly drawn) [Compound 63289, (4aR,6aR,6bS,8aS,12aR,15aR,15bR)-methyl 2-cyano-14-hydroxy-4,4,6a,6b,11,11,15b-heptamethyl-3-oxo-3,4,4a,5,6,6a,6b,7,8,8a,9,10,11,12,12a,12b,14,15,15a,15b-icosahydrodinaphtho[1,2-b:2′,1′-d]oxepine-8a-carboxylate] |  |  |  |  | > 200
11 |  | ~20 | COC(=O)[C@]12CCC(C)(C)C[C@H]1[C@H]1C(=NO)C[C@@H]3[C@@]4(C)C=C(C#N)C(=O)C(C)(C)[C@@H]4CC[C@@]3(C)[C@]1(C)CC2 [Compound 63295, (4aS,6aR,6bR,8aR,12aR,12bR,14aR,14bS)-methyl 11-cyano-14-(hydroxyimino)-2,2,6a,6b,9,9,12a-heptamethyl-10-oxo-1,2,3,4,4a,5,6,6a,6b,7,8,8a,9,10,12a,12b,13,14,14a,14b-icosahydropicene-4a-carboxylate] |  |  |  |  | > 200
12 |  | ~200 | COC(=O)[C@]12CCC(C)(C)C[C@H]1[C@H]1NC(=O)C[C@@H]3[C@@]4(C)C=C(C#N)C(=O)C(C)(C)[C@@H]4CC[C@@]3(C)[C@]1(C)CC2 [Compound 63296, (4aR,6aR,6bS,8aS,12aR,12bR,15aR,15bR)-methyl 2-cyano-4,4,6a,6b,11,11,15b-heptamethyl-3,14-dioxo-4,4a,5,6,6a,6b,7,8,8a,9,10,11,12,12a,12b,13,14,15,15a,15b-icosahydro-3H-dinaphtho[1,2-b:2′,1′-d]azepine-8a-carboxylate] |  |  |  |  | > 200
13 |  | ~25 | CC(=O)[C@]12CCC(C)(C)C[C@H]1[C@H]1C(=O)C[C@@H]3[C@@]4(C)C=C(C#N)C(=O)C(C)(C)[C@@H]4CC[C@@]3(C)[C@]1(C)CC2 [Compound 63308, (4aR,6aR,6bR,8aS,12aS,12bR,14aR,14bR)-8a-acetyl-4,4,6a,6b,11,11,14b-heptamethyl-3,13-dioxo-3,4,4a,5,6,6a,6b,7,8,8a,9,10,11,12,12a,12b,13,14,14a,14b-icosahydropicene-2-carbonitrile] |  |  |  |  | > 200
14 |  |  | CN(C)C(=O)[C@]12CCC(C)(C)C[C@H]1[C@H]1C(=O)C=C3[C@@]4(C)C=C(C#N)C(=O)C(C)(C)[C@@H]4CC[C@@]3(C)[C@]1(C)CC2 [Compound 63324, reference compound] | 0/5 | 0/5 | 0/5 |  | 

Row | Structure (SMILES) | IC50 [1] [nM] | IC50 ([1]; Mus musculus) [nM] | Mortality (mice; 3 mg/kg) | Mortality (mice; 10 mg/kg) | Mortality (mice; 30 mg/kg) | IC50 (RAW264.7 macrophages) [nM] | IC50 (RAW264.7 macrophages; Mus musculus) [nM]
15 | CC1(C)CC[C@]2(C(=O)OCc3ccccc3)CC[C@]3(C)[C@H](C(=O)C[C@@H]4[C@@]5(C)C=C(C#N)C(=O)C(C)(C)[C@@H]5CC[C@]43C)[C@@H]2C1 [Compound 63323, (4aS,6aR,6bR,8aR,12aR,12bR,14aR,14bS)-benzyl 11-cyano-2,2,6a,6b,9,9,12a-heptamethyl-10,14-dioxo-1,2,3,4,4a,5,6,6a,6b,7,8,8a,9,10,12a,12b,13,14,14a,14b-icosahydropicene-4a-carboxylate] |  | ~40 | 0/5 | 0/5 | 0/5 |  | 
16 | CONC(=O)[C@]12CCC(C)(C)C[C@H]1[C@H]1C(=O)C[C@@H]3[C@@]4(C)C=C(C#N)C(=O)C(C)(C)[C@@H]4CC[C@@]3(C)[C@]1(C)CC2 [Compound 63325, (4aS,6aR,6bR,8aR,12aR,12bR,14aR,14bS)-11-cyano-N-methoxy-2,2,6a,6b,9,9,12a-heptamethyl-10,14-dioxo-1,2,3,4,4a,5,6,6a,6b,7,8,8a,9,10,12a,12b,13,14,14a,14b-icosahydropicene-4a-carboxamide] |  | ~50 | 0/5 | 0/5 | 0/5 |  | 
17 | CN(C)C(=O)[C@]12CCC(C)(C)C[C@H]1[C@H]1C(=O)C[C@@H]3[C@@]4(C)C=C(C#N)C(=O)C(C)(C)[C@@H]4CC[C@@]3(C)[C@]1(C)CC2 [Compound 63326, (4aS,6aR,6bR,8aR,12aR,12bR,14aR,14bS)-11-cyano-N,N,2,2,6a,6b,9,9,12a-nonamethyl-10,14-dioxo-1,2,3,4,4a,5,6,6a,6b,7,8,8a,9,10,12a,12b,13,14,14a,14b-icosahydropicene-4a-carboxamide] |  | ~50 | 0/5 | 1/5 | 0/5 |  | 
